One compound from paper PMC11960782 (Nanoscale Advances, 2025) can be followed below.

Residues, ends and D or L forms follow the SMILES beside them.

Data set [1] deals with DC2.4 cells.
The conditions of data set [2]: mouse, in vivo.

For the compound `CCCCCCCCCCCCCCCC(=O)N[C@H](C(=O)N[C@H](C(=O)N[C@H](C(=O)N[C@@H](C)C(=O)N[C@@H](C)C(=O)N[C@@H](C)C(=O)N[C@@H](CCCCN)C(=O)N[C@@H](CCCCN)C(=O)N[C@@H](CCCCN)C(=O)NCC(=O)NCC(=O)NCC(=O)NCC(=O)N[C@@H](CO)C(=O)N[C@@H](CC(C)C)C(=O)N[C@@H](CC(C)C)C(=O)N[C@H](C(=O)N[C@@H](CCC(=O)O)C(=O)N[C@H](C(=O)N[C@@H](CCC(=O)O)C(=O)N[C@H](C(=O)N1CCC[C@H]1C(=O)N[C@H](C(=O)N[C@@H](CCCNC(=N)N)C(=O)N[C@@H](CC(N)=O)C(=O)N[C@@H](CCC(=O)O)C(=O)N[C@@H](Cc1c[nH]c2ccccc12)C(=O)NCC(=O)N[C@@H](CO)C(=O)N[C@@H](CCCNC(=N)N)C(=O)N[C@@H](CO)C(=O)N[C@@H](CC(N)=O)C(=O)NCC(=O)N[C@@H](CO)C(=O)N[C@@H](CO)C(=O)N[C@@H](CC(=O)O)C(=O)O)[C@@H](C)CC)[C@@H](C)O)C(C)C)[C@@H](C)O)C(C)C)C(C)C)C(C)C` [PA–M2e] (HELM PEPTIDE1{[CCCCCCCCCCCCCCCC(=O)[*:2]].V.V.V.A.A.A.K.K.K.G.G.G.G.S.L.L.T.E.V.E.T.P.I.R.N.E.W.G.S.R.S.N.G.S.S.D}$$$$V2.0), in data set [1], the “cell viability (metabolic activity, resazurin reduction)” value was “did not significantly decrease cell viability” and the “live–dead cell assay by confocal microscopy” value is recorded as “confirmed the biocompatibility”. Further, the “weight loss upon immunization” value in data set [2] was “none of the mice experienced weight loss”.
